This experiment deals with T1, Human CB2R (Cannabinoid receptor 2) (Homo sapiens, UniProt P34972).
T1 construct: host or cells: HEK-293
Kind of experiment: CB-2 in vitro cAMP (HTRF) functional assay. The class given is cell-based. The conditions noted are these: mean where tested more than once. From the text: CB1 and CB2 receptors are Gi-coupled GPCR. Activation of CB1 and CB2 receptors results in a decrease in cAMP production. An inverse agonist of the CB1 or CB2 receptor results in the opposite effect, an increase of cAMP production. The principle of this assay is based on HTRF® technology (Homogeneous Time-Resolved Fluorescence). The method is a competitive immunoassay between native cAMP produced by cells and the cAMP labeled with the fluorophore d2. The tracer binding is quantified by a Mab anti-cAMP labeled with Eu3+ TBP-NHS Cryptate (supplied as part of the assay kit). The specific signal (i.e. energy transfer) is inversely proportional to the concentration of cAMP in the standard or sample.
Human CB1R (Cannabinoid receptor 1) was stably transfected in HEK-293 cells (DiscoveRx, cat: 93-0200C1). Human CB2R (Cannabinoid receptor 2) was stably transfected in HEK-293 cells (DiscoveRx, cat: 93-0201C1). Cell cultures were maintained in media: DMEM (Invitrogen Cat#12430-054) supplemented with 10% HI FBS (Invitrogen Cat#16140-071), 1% L-glutamine (Invitrogen Cat#25030-081), 0.2 mg/ml Hygromycin B (Invitrogen Cat#10687-010), 600 μg/mL G418 (Invitrogen Cat#10131-035), and 1× Penn/Strep (Invitrogen 15140-122). After cell expansion, aliquots were cryo-stored in media containing 5% DMSO (Pierce Cat#20684).
One day prior to experiments media was warmed to 37° C. and the cryo-stored cells were thawed in a 37° C. water bath. The cells were then added to media (10× volume) and the mixture was centrifuged at 1000 RPM for 5 min. The supernate was removed and the cells were re-suspended in media. A sample of the cell suspension was evaluated on a Cedex XS automated cell counter (Innovatis Systems) to determine viable cells/ml. Additional media was added to the cells to achieve a final cell density of 4E5 cells/mL. The cells were then plated into 384 well PDL white solid bottom plates (Greiner, Cat#781945) at 20 μL per well using a Multidrop (Thermo Scientific). Cells were removed from Row P (location of cAMP standards). Two columns of cells were plated into a clear bottom 384 well PDL coated plate (Greiner, Cat#781944) to view confluence the day of the assay. The cell plates were lidded and stored for 15 minutes in a hood, then transferred to an incubator (37° C., 5% CO2, 95% humidity) overnight.
DMSO was added to all wells of 384 well V bottom polystyrene plate (Greiner, Cat#781280) except to columns 1 and 13, rows O and P and wells M13-M23 and N13-N23. Test compounds (60 μL, 10 mM) were added to Column 1 and 13 (A1 through N1 and A13 through L13). Test compounds were serially diluted 1/3 by transferring and mixing 20 μl sample with 40 μL DMSO.
DMSO (40 μL) was added to wells of 384 well V bottom polystyrene plate: O2 through O11, M14 through M23, N14 through N23, and O14 through O23. AM630 (also known as [6-iodo-2-methyl-1-[2-(4-morpholinyl)ethyl]-1H-indol-3-yl](4-methoxyphenyl)-methanone, Cayman Chemical, Cat#10006974) (60 μL, 10 mM) was added to O1; and 1-(2,4-dichlorophenyl)-7-[(4-fluorophenyl)methylene]-4,5,6,7-tetrahydro-N-1-piperidinyl-1H-indazole-3-carboxamide (60 μL, 10 mM) was added to N13. The control was serially diluted 1/3 by transferring and mixing 20 μl sample with 40 μL DMSO. This process resulted 11 doses per control, 10 mM to […].
Cells plated the day prior to the assay in clear bottom plates were viewed on an inverse microscope to ensure confluency in the range of 60-75%. […]

T1 sequence (P34972 whole entry): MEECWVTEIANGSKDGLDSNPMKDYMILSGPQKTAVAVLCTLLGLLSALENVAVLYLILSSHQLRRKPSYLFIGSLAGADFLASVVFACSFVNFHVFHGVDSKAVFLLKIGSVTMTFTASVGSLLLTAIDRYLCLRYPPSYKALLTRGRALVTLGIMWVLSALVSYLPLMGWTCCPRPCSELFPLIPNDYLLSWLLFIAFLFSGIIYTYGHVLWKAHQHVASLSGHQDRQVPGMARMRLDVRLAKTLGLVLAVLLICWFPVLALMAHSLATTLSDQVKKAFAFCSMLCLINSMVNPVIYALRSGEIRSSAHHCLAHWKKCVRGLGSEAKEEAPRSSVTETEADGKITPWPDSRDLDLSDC

As to `O=c1cc(NCc2ccc(C(F)(F)F)cc2)c2cc(C(c3ccc(Cl)cc3)c3ccc(Cl)cc3)ccc2[nH]1` [Compound 58, 6-[Bis(4-chlorophenyl)methyl]-4-{[4-(trifluoromethyl)benzyl]amino}quinolin-2(1H)-one], the EC50 (as a rule, the concentration at which the effect is half-maximal) is above 10 µM.

For `O=c1cc(Nc2cccc(C(F)(F)F)c2)c2cc(C(c3ccc(Cl)cc3)c3ccc(Cl)cc3)ccc2[nH]1` [Compound 75, 6-[Bis(4-chlorophenyl)methyl]-4-{[3-(trifluoromethyl)phenyl]amino}quinolin-2(1H)-one], the EC50 is above 10 µM.

The compound `O=c1cc(NCc2ccc(C(F)(F)F)cn2)c2cc(C(c3ccc(Cl)cc3)c3ccc(Cl)cc3)ccc2[nH]1` [Compound 78, 6-[Bis(4-chlorophenyl)methyl]-4-({[5-(trifluoromethyl)pyridin-2-yl]methyl}amino)quinolin-2(1H)-one] registered an EC50 above 10 µM.

Turning to `O=c1cc(Nc2ccc(Cl)c(F)c2)c2cc(C(c3ccc(Cl)cc3)c3ccc(Cl)cc3)ccc2[nH]1` [Compound 83, 6-[Bis(4-chlorophenyl)methyl]-4-[(4-chloro-3-fluorophenyl)amino]quinolin-2(1H)-one], the EC50 was above 10 µM.

Take `COC(=O)c1ccc(Nc2cc(=O)[nH]c3ccc(C(c4ccc(Cl)cc4)c4ccc(Cl)cc4)cc23)cc1` [Compound 85, Methyl 4-({6-[bis(4-chlorophenyl)methyl]-2-oxo-1,2-dihydroquinolin-4-yl}amino)benzoate]: the EC50 was above 10 µM.

Compound `NC(=O)c1ccc(Nc2cc(=O)[nH]c3ccc(C(c4ccc(Cl)cc4)c4ccc(Cl)cc4)cc23)cc1` [Compound 87, 4-({6-[Bis(4-chlorophenyl)methyl]-2-oxo-1,2-dihydroquinolin-4-yl}amino)benzamide] returned an EC50 above 10 µM.

In turn, `COCCOc1ccc(Nc2cc(=O)[nH]c3ccc(C(c4ccc(Cl)cc4)c4ccc(Cl)cc4)cc23)cc1` [Compound 94, 6-[Bis(4-chlorophenyl)methyl]-4-{[4-(2-methoxyethoxy)phenyl]amino}quinolin-2(1H)-one] registered an EC50 above 10 µM.

In turn, `O=C(O)CC(=O)N1CCC(Nc2cc(=O)[nH]c3ccc(C(c4ccc(Cl)cc4)c4ccc(Cl)cc4)cc23)CC1` [Compound 96, 3-[4-({6-[Bis(4-chlorophenyl)methyl]-2-oxo-1,2-dihydroquinolin-4-yl}amino)piperidin-1-yl]-3-oxopropanoic acid] showed an EC50 above 10 µM.

With `O=C(O)CCC(=O)N1CCC(Nc2cc(=O)[nH]c3ccc(C(c4ccc(Cl)cc4)c4ccc(Cl)cc4)cc23)CC1` [Compound 98, 4-(4-((6-(bis(4-chlorophenyl)methyl)-2-oxo-1,2-dihydroquinolin-4-yl)amino)piperidin-1-yl)-4-oxobutanoic acid], the EC50 is above 10 µM.

Take `CCOC(=O)CS(=O)(=O)N1CCC(Nc2cc(=O)[nH]c3ccc(C(c4ccc(Cl)cc4)c4ccc(Cl)cc4)cc23)CC1` [Compound 102, ethyl 2-((4-((6-(bis(4-chlorophenyl)methyl)-2-oxo-1,2-dihydroquinolin-4-yl)amino)piperidin-1-yl)sulfonyl)acetate]: the EC50 was above 10 µM.

With `CCOC(=O)CCCNc1cc(C(c2ccc(Cl)cc2)c2ccc(Cl)cc2)cc2c(NC3CCN(S(=O)(=O)C(F)(F)F)CC3)cc(=O)[nH]c12` [Compound 104, Ethyl 4-({6-[bis(4-chlorophenyl)methyl]-2-oxo-4-({1-[(trifluoromethyl)sulfonyl]piperidin-4-yl}amino)-1,2-dihydroquinolin-8-yl}amino)butanoate], the EC50 was above 10 µM.

`CC(C)(C)OC(=O)COc1ccc(Nc2cc(=O)[nH]c3ccc(C(c4ccc(Cl)cc4)c4ccc(Cl)cc4)cc23)cc1` [Compound 105, tert-butyl 2-(4-((6-(bis(4-chlorophenyl)methyl)-2-oxo-1,2-dihydroquinolin-4-yl)amino)phenoxy)acetate] registered an EC50 above 10 µM.

With `O=C(O)COc1ccc(Nc2cc(=O)[nH]c3ccc(C(c4ccc(Cl)cc4)c4ccc(Cl)cc4)cc23)cc1` [Compound 109, 2-(4-((6-(bis(4-chlorophenyl)methyl)-2-oxo-1,2-dihydroquinolin-4-yl)amino)phenoxy)acetic acid], the EC50 was above 10 µM.

`COCCn1c(=O)cc(NC2CCN(S(=O)(=O)C(F)(F)F)CC2)c2cc(C(c3ccc(Cl)cc3)c3ccc(Cl)cc3)ccc21` [Compound 110, 6-(bis(4-chlorophenyl)methyl)-1-(2-methoxyethyl)-4-((1-((trifluoromethyl)sulfonyl)piperidin-4-yl)amino)quinolin-2(1H)-one] showed an EC50 above 10 µM.

Take `NC(=O)COc1ccc(Nc2cc(=O)[nH]c3ccc(C(c4ccc(Cl)cc4)c4ccc(Cl)cc4)cc23)cc1` [Compound 111, 2-(4-((6-(bis(4-chlorophenyl)methyl)-2-oxo-1,2-dihydroquinolin-4-yl)amino)phenoxy)acetamide]: the EC50 was above 10 µM.

The compound `NC(=O)CCC(=O)N1CCC(Nc2cc(=O)[nH]c3ccc(C(c4ccc(Cl)cc4)c4ccc(Cl)cc4)cc23)CC1` [Compound 112, 4-[4-({6-[Bis(4-chlorophenyl)methyl]-2-oxo-1,2-dihydroquinolin-4-yl}amino)piperidin-1-yl]-4-oxobutanamide] returned an EC50 above 10 µM.

The compound `CC(C)(C)OC(=O)CCN1CCC(Nc2cc(=O)[nH]c3ccc(C(c4ccc(Cl)cc4)c4ccc(Cl)cc4)cc23)CC1` [Compound 114, tert-butyl 3-(4-((6-(bis(4-chlorophenyl)methyl)-2-oxo-1,2-dihydroquinolin-4-yl)amino)piperidin-1-yl)propanoate] came in with an EC50 above 10 µM.

Compound `O=C(O)CN1CCC(Nc2cc(=O)[nH]c3ccc(C(c4ccc(Cl)cc4)c4ccc(Cl)cc4)cc23)CC1` [Compound 117, [4-({6-[Bis(4-chlorophenyl)methyl]-2-oxo-1,2-dihydroquinolin-4-yl}amino)piperidin-1-yl]acetic acid] gave an EC50 above 10 µM.

`CC(C)(C)OC(=O)/N=C(/NC(=O)OC(C)(C)C)N1CCC(Nc2cc(=O)[nH]c3ccc(C(c4ccc(Cl)cc4)c4ccc(Cl)cc4)cc23)CC1` [Compound 119, (Z)-tert-butyl ((4-((6-(bis(4-chlorophenyl)methyl)-2-oxo-1,2-dihydroquinolin-4-yl)amino)piperidin-1-yl)((tert-butoxycarbonyl)imino)methyl)carbamate] had an EC50 above 10 µM.

`O=C(O)CCCOc1ccc(Nc2cc(=O)[nH]c3ccc(C(c4ccc(Cl)cc4)c4ccc(Cl)cc4)cc23)cc1` [Compound 121, 4-[4-({6-[Bis(4-chlorophenyl)methyl]-2-oxo-1,2-dihydroquinolin-4-yl}amino)phenoxy]butanoic acid]: the EC50 was above 10 µM.

`NC(=O)CCCOc1ccc(Nc2cc(=O)[nH]c3ccc(C(c4ccc(Cl)cc4)c4ccc(Cl)cc4)cc23)cc1` [Compound 123, 4-[4-({6-[Bis(4-chlorophenyl)methyl]-2-oxo-1,2-dihydroquinolin-4-yl}amino)phenoxy]butanamide] displayed an EC50 above 10 µM.

`COC(=O)Cc1ccc(Nc2cc(=O)[nH]c3ccc(C(c4ccc(Cl)cc4)c4ccc(Cl)cc4)cc23)cc1` [Compound 124, Methyl [4-({6-[bis(4-chlorophenyl)methyl]-2-oxo-1,2-dihydroquinolin-4-yl}amino)phenyl]acetate]: the EC50 is above 10 µM.

With `O=C(O)Cc1ccc(Nc2cc(=O)[nH]c3ccc(C(c4ccc(Cl)cc4)c4ccc(Cl)cc4)cc23)cc1` [Compound 125, [4-({6-[Bis(4-chlorophenyl)methyl]-2-oxo-1,2-dihydroquinolin-4-yl}amino)phenyl]acetic acid], the EC50 was above 10 µM.

These data come from US9464055B2, “Quinoline derivatives useful as CB-1 inverse agonists” (JANSSEN PHARMACEUTICA NV, priority 2014, dated 2016).
